Assay [1] deals with T1, Prostaglandin G/H synthase 2 (Homo sapiens, UniProt P35354).
T1 sequence (P35354 whole entry): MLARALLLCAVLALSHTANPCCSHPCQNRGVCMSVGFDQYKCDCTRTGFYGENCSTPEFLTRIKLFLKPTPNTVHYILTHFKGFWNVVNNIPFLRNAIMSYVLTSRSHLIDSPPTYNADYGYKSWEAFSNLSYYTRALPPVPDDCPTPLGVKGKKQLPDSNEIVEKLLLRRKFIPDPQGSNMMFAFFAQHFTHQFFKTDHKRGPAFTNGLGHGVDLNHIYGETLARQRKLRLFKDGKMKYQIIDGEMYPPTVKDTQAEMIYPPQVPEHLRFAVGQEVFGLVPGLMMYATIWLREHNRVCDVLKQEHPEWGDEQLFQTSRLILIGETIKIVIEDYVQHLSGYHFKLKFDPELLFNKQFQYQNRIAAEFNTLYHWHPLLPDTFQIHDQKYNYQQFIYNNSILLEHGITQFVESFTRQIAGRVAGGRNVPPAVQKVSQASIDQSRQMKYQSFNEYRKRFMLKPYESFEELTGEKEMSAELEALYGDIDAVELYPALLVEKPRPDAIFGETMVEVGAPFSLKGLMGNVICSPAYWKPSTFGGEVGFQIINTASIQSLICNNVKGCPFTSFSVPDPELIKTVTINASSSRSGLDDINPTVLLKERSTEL
Briefly: Inhibitory concentration in DMSO with purified human Prostaglandin G/H synthase 2 (COX-2).

For assay [2], the target named is T2, Prostaglandin G/H synthase 1 (Ovis aries, UniProt P05979).
T2 sequence (P05979 whole entry): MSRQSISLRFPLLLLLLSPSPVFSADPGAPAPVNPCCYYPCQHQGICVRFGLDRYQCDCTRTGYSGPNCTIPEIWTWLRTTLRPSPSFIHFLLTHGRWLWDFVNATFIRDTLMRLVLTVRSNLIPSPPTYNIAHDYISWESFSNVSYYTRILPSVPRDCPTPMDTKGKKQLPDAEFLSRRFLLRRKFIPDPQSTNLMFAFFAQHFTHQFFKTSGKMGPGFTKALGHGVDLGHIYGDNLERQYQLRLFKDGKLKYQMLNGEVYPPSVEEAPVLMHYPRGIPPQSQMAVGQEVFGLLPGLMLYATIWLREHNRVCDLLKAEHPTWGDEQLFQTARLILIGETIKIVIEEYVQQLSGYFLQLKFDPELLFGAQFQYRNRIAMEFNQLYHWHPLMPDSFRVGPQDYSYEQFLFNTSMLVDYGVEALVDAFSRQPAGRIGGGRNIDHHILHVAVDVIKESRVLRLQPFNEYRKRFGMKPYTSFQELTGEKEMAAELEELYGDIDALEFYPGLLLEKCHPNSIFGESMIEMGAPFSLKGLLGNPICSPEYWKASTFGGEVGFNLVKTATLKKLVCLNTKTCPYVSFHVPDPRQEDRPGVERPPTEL
Briefly: Inhibitory concentration in DMSO with purified ovine Prostaglandin G/H synthase 1 (COX-1).

By IC50 is commonly meant the concentration at which inhibition is half-maximal.

`CC(=O)Oc1ccccc1SCCCCCO`: the IC50 in assay [1] and in assay [2] was above 50 µM throughout.

Consider `CC(=O)Oc1ccccc1SCCCCC(=O)O`, for which the concentration for half-maximal inhibition (IC50) in assay [1] and in assay [2] was above 50 µM in each case.

As for `CCCCCCC[S+]([O-])c1ccccc1OC(C)=O` (configuration not stated), the IC50 in assay [1] and in assay [2] was above 40 µM throughout.

`CSc1ccccc1OC(C)=O` had an IC50 in assay [2] above 5000 µM.

In assay [2], `CCCCC#CCSc1ccccc1OC(C)=O` returned a 50% inhibitory concentration (IC50) of 17 µM.

For the compound `CC(=O)Oc1ccccc1SCCCCCBr`, the half-maximal inhibitory concentration (IC50) in assay [1] came to 9.5 µM; in assay [2] it was 34 µM.

Turning to `CCC(=O)Oc1ccccc1SC`, the half-inhibitory concentration (IC50) in assay [1] and in assay [2] was above 1000 µM each time.

In turn, `CCCCSc1ccccc1OC(C)=O` registered a 50% inhibitory concentration (IC50) in assay [2] of 40 µM.

As to `CC(=O)Oc1ccccc1SCCCCCCI`, the IC50 in assay [1] came out at 10 µM; in assay [2] it was 70 µM.

For the compound `CCCCCCCCCSc1ccccc1OC(C)=O`, the concentration for half-maximal inhibition (IC50) in assay [1] and in assay [2] was above 40 µM each time.

Take `CC(=O)Oc1ccccc1SC1CCCCC1`: the IC50 in assay [1] and in assay [2] was above 40 µM throughout.

Regarding `CC(=O)Oc1ccccc1SCCCCC#N`, the IC50 in assay [1] and in assay [2] was above 50 µM in each case.

`CC(=O)Oc1ccccc1SCCCc1ccccc1`: the IC50 in assay [1] and in assay [2] was above 1000 µM throughout.

On to `CCCCC#CCSc1ccccc1OC(=O)CC`, for which the 50% inhibitory concentration (IC50) in assay [1] and in assay [2] was above 40 µM in each case.

`CCCOCCCSc1ccccc1OC(C)=O`: the IC50 in assay [1] and in assay [2] was above 50 µM in each case.

For the compound `CCCCCCCOc1ccccc1OC(C)=O`, the IC50 in assay [1] and in assay [2] was above 40 µM each time.

Regarding `CC(=O)Oc1ccccc1SCCc1ccccc1`, the half-maximal inhibitory concentration (IC50) in assay [2] was above 150 µM.

`CCCCCCC[Se]c1ccccc1OC(C)=O`: the 50% inhibitory concentration (IC50) in assay [1] and in assay [2] was 12 µM in each case.

In the case of `CCCCCCCS(=O)(=O)c1ccccc1OC(C)=O`, the concentration for half-maximal inhibition (IC50) in assay [1] and in assay [2] was above 40 µM throughout.

As for `CC(=O)Oc1ccccc1SC1CCCCCC1`, the IC50 in assay [1] and in assay [2] was above 40 µM in each case.

Take `CCCCCCCCSc1ccccc1OC(C)=O`: the half-maximal inhibitory concentration (IC50) in assay [1] and in assay [2] was above 40 µM throughout.

As to `CCCCC#CCOc1ccccc1OC(C)=O`, the half-inhibitory concentration (IC50) in assay [1] and in assay [2] was above 40 µM throughout.

For `CCCC/C=C/CSc1ccccc1OC(C)=O`, it took 22 µM to reach half-maximal inhibition in assay [2] (IC50).

Turning to `CCCCCCCCc1ccccc1OC(C)=O`, the 50% inhibitory concentration (IC50) in assay [1] and in assay [2] was above 40 µM throughout.

For `CC(=O)Oc1ccccc1SCCCCCC(=O)O`, the IC50 in assay [1] and in assay [2] was 50 µM throughout.

Consider `CCCCC#CC(C)Sc1ccccc1OC(C)=O` (configuration not stated), for which the half-maximal inhibitory concentration (IC50) in assay [1] worked out at 7 µM; in assay [2] it was 15 µM.

Turning to `CC(=O)OCCCCCSc1ccccc1OC(C)=O`, the concentration for half-maximal inhibition (IC50) in assay [1] and in assay [2] was 50 µM throughout.

On to `CCCCCCCN(C)c1ccccc1OC(C)=O`, for which the IC50 in assay [1] and in assay [2] was above 40 µM each time.

`CC(=O)Oc1ccccc1SCCCOc1ccccc1`: the IC50 in assay [1] and in assay [2] was above 1000 µM throughout.

`CC(=O)Oc1ccccc1SCc1ccccc1` came in with a half-maximal inhibitory concentration (IC50) in assay [2] above 400 µM.

As to `CC#CCSc1ccccc1OC(C)=O`, in assay [2], the IC50 stood at 35 µM.

For the compound `CC(=O)Oc1ccccc1SCCCCCCBr`, the IC50 in assay [1] turned out to be 12 µM; in assay [2], 25 µM.

For the origin of these results see ChEMBL document CHEMBL1131194, “Covalent modification of cyclooxygenase-2 (COX-2) by 2-acetoxyphenyl alkyl sulfides, a new class of selective COX-2 inactivators” (J Med Chem, 1998).
